Assay results: patent publication US9901592B2 (priority 2008, dated 2018)
≈ marks a conversion by molar mass, not a printed value. Like-named read-outs stand apart in the source and are kept apart here.

Legend:
S. pyogenes = format: cell-based; conditions: strain 2132 Macrolide-S
U. urealyticum = assay: MIC testing in 10B broth (colour change); format: cell-based; conditions: U. urealyticum (10 isolates)
streptococci = assay: organism not typed; format: cell-based
S. pneumoniae [1] = assay: microbe, parasite or virus in culture; format: cell-based; conditions: for MIC: Streptococcus pneumoniae
pneumococci = assay: microbe, parasite or virus in culture; format: cell-based, S. pneumoniae; conditions: Streptococcus pneumoniae, pneumococci, L4 mutations (27)
S. pneumoniae [2] = format: cell-based
M. pneumoniae = assay: microbe, parasite or virus in culture; format: cell-based; conditions: Mycoplasmoides pneumoniae
M. hominis = format: cell-based; conditions: M. hominis (13 isolates)
M. catarrhalis = assay: microbe, parasite or virus in culture; format: cell-based; conditions: Moraxella catarrhalis

## CC[C@H]1OC(=O)[C@H](C)[C@@H](O[C@H]2C[C@@](C)(OC)[C@@H](O)[C@H](C)O2)[C@H](C)[C@@H](O[C@@H]2O[C@H](C)C[C@H](N(C)C)[C@H]2O)[C@](C)(O)C[C@@H](C)CN(C)[C@H](C)[C@@H](O)[C@]1(C)O [AZI, azithromycin]
S. pyogenes; 2 × MIC
  single step mutation frequency: <1.0 × 10^−10
S. pyogenes; 4 × MIC
  single step mutation frequency: <1.0 × 10^−10
S. pyogenes; 8 × MIC
  single step mutation frequency: <1.0 × 10^−10
U. urealyticum
  MIC Range: 0.5 to 4 µg/mL
U. urealyticum; Ureaplasma urealyticum
  MIC50: 2 µg/mL (≈ 2.67 µM)
  MIC90: 4 µg/mL (≈ 5.34 µM)
streptococci
  MIC50: 0.06 µg/mL (≈ 0.0801 µM)
  MIC90: 0.12 µg/mL (≈ 0.16 µM)
  MIC Range: ≦0.008-0.5 μg/ml
S. pneumoniae [1]; S. pneumoniae
  strains with resistant clones / strains tested: 3/4
S. pneumoniae [1]; read-out: Initial MIC, strain 1077 Macrolide-S, parent
  MIC: 0.03 µg/mL (≈ 0.0401 µM)
S. pneumoniae [1]; read-out: Initial MIC, strain 1635 Macrolide-R [erm(A)], parent
  MIC: 2 µg/mL (≈ 2.67 µM)
S. pneumoniae [1]; read-out: Initial MIC, strain 3665 Macrolide-R [mef(A)], parent
  MIC: 8 µg/mL (≈ 10.7 µM)
S. pneumoniae [1]; read-out: Initial MIC, strain 7127 Macrolide-S [S20N in L4, A105V in L22], parent
  MIC: 0.06 µg/mL (≈ 0.0801 µM)
S. pneumoniae [1]; read-out: MIC of parents of resistant clones, S. pneumoniae (CEM-101: 7 strains)
  MIC: 0.03 to 2 µg/mL
S. pneumoniae [1]; read-out: Parental MICs, S. pneumoniae, 8 strains with varying resistotypes
  MIC: 0.03 to 8 µg/mL (≈ 0.0401 to 10.7 µM)
S. pneumoniae [1]; read-out: Selected Resistance MIC, strain 3665 Macrolide-R [mef(A)], after serial passages in the drug
  MIC: 16 µg/mL (≈ 21.4 µM)
S. pneumoniae [1]; read-out: Selected Resistance MIC, strain 7127 Macrolide-S [S20N in L4, A105V in L22], after serial passages in the drug
  MIC: 0.5 µg/mL (≈ 0.668 µM)
S. pneumoniae [1]; daily passages, min. 14, max. 50
  days until resistant clones (MIC increase): 14 to 29 days
S. pneumoniae [1]; strain 24 Macrolide-R [erm(B)], clone selected with CEM-101
  Retest MIC after 10 Antibiotic-free Subcultures: >64 µg/mL
S. pneumoniae [1]; strain 24 Macrolide-R [erm(B)], clone selected with TEL
  Retest MIC after 10 Antibiotic-free Subcultures: >64 µg/mL
S. pneumoniae [1]; strain 1076 Macrolide-R [erm(B)&mef(A)], clone selected with CEM-101
  Retest MIC after 10 Antibiotic-free Subcultures: >64 µg/mL
S. pneumoniae [1]; strain 1076 Macrolide-R [erm(B)&mef(A)], clone selected with TEL
  Retest MIC after 10 Antibiotic-free Subcultures: >64 µg/mL
S. pneumoniae [1]; strain 1077 Macrolide-S, clone selected with AZI
  Retest MIC after 10 Antibiotic-free Subcultures: >64 µg/mL
S. pneumoniae [1]; strain 1077 Macrolide-S, clone selected with CEM-101
  Retest MIC after 10 Antibiotic-free Subcultures: 0.03 µg/mL
S. pneumoniae [1]; strain 1077 Macrolide-S, clone selected with CLN
  Retest MIC after 10 Antibiotic-free Subcultures: >64 µg/mL
S. pneumoniae [1]; strain 1077 Macrolide-S, clone selected with TEL
  Retest MIC after 10 Antibiotic-free Subcultures: >64 µg/mL
S. pneumoniae [1]; strain 1635 Macrolide-R [erm(A)], clone selected with AZI
  Retest MIC after 10 Antibiotic-free Subcultures: >64 µg/mL
S. pneumoniae [1]; strain 1635 Macrolide-R [erm(A)], clone selected with CEM-101
  Retest MIC after 10 Antibiotic-free Subcultures: 4 µg/mL
S. pneumoniae [1]; strain 1635 Macrolide-R [erm(A)], clone selected with CLN
  Retest MIC after 10 Antibiotic-free Subcultures: 4 µg/mL
S. pneumoniae [1]; strain 1635 Macrolide-R [erm(A)], clone selected with CLR
  Retest MIC after 10 Antibiotic-free Subcultures: >64 µg/mL
S. pneumoniae [1]; strain 2686 Macrolide-R [L4 mutation], clone selected with CEM-101
  Retest MIC after 10 Antibiotic-free Subcultures: >64 µg/mL
S. pneumoniae [1]; strain 2686 Macrolide-R [L4 mutation], clone selected with CLR
  Retest MIC after 10 Antibiotic-free Subcultures: >64 µg/mL
S. pneumoniae [1]; strain 2686 Macrolide-R [L4 mutation], clone selected with TEL
  Retest MIC after 10 Antibiotic-free Subcultures: >64 µg/mL
S. pneumoniae [1]; strain 3009 Macrolide-R [23SrRNA mutation], clone selected with CEM-101
  Retest MIC after 10 Antibiotic-free Subcultures: >64 µg/mL
S. pneumoniae [1]; strain 3009 Macrolide-R [23SrRNA mutation], clone selected with CLR
  Retest MIC after 10 Antibiotic-free Subcultures: >64 µg/mL
S. pneumoniae [1]; strain 3665 Macrolide-R [mef(A)], clone selected with CEM-101
  Retest MIC after 10 Antibiotic-free Subcultures: 16 µg/mL
S. pneumoniae [1]; strain 3665 Macrolide-R [mef(A)], clone selected with CLR
  Retest MIC after 10 Antibiotic-free Subcultures: 8 µg/mL
S. pneumoniae [1]; strain 3665 Macrolide-R [mef(A)], clone selected with TEL
  Retest MIC after 10 Antibiotic-free Subcultures: 4 µg/mL
S. pneumoniae [1]; strain 7127 Macrolide-S [S20N in L4, A105V in L22], clone selected with AZI
  Retest MIC after 10 Antibiotic-free Subcultures: 1 µg/mL
S. pneumoniae [1]; strain 7127 Macrolide-S [S20N in L4, A105V in L22], clone selected with CEM-101
  Retest MIC after 10 Antibiotic-free Subcultures: 0.06 µg/mL
S. pneumoniae [1]; strain 7127 Macrolide-S [S20N in L4, A105V in L22], clone selected with CLN
  Retest MIC after 10 Antibiotic-free Subcultures: 0.03 µg/mL
S. pneumoniae [1]; strain 7127 Macrolide-S [S20N in L4, A105V in L22], clone selected with CLR
  Retest MIC after 10 Antibiotic-free Subcultures: >64 µg/mL
S. pneumoniae [1]; strain 7127 Macrolide-S [S20N in L4, A105V in L22], clone selected with TEL
  Retest MIC after 10 Antibiotic-free Subcultures: 0.06 µg/mL
pneumococci
  MIC50: > 64 µg/mL
  MIC90: > 64 µg/mL
S. pneumoniae [2]; strain 1077 Macrolide-S, 2 × MIC
  single step mutation frequency: 7.2 × 10^−9
S. pneumoniae [2]; strain 1077 Macrolide-S, 4 × MIC
  single step mutation frequency: <1.9 × 10^−10
S. pneumoniae [2]; strain 1077 Macrolide-S, 8 × MIC
  single step mutation frequency: <1.9 × 10^−10
S. pneumoniae [2]; strain 1635 Macrolide-R [erm(A)], 2 × MIC
  single step mutation frequency: <2.0 × 10^−10
S. pneumoniae [2]; strain 1635 Macrolide-R [erm(A)], 4 × MIC
  single step mutation frequency: <2.0 × 10^−10
S. pneumoniae [2]; strain 1635 Macrolide-R [erm(A)], 8 × MIC
  single step mutation frequency: <2.0 × 10^−10
S. pneumoniae [2]; strain 7127 Macrolide-S [S20N in L4, A105V in L22], 2 × MIC
  single step mutation frequency: <2.0 × 10^−10
S. pneumoniae [2]; strain 7127 Macrolide-S [S20N in L4, A105V in L22], 4 × MIC
  single step mutation frequency: <2.0 × 10^−10
S. pneumoniae [2]; strain 7127 Macrolide-S [S20N in L4, A105V in L22], 8 × MIC
  single step mutation frequency: <2.0 × 10^−10
M. pneumoniae
  MIC50: 0.00025 µg/mL (≈ 0.000334 µM)
  MIC90: 0.0005 µg/mL (≈ 0.000668 µM)
M. hominis
  MIC Range: 0.5 to 4 µg/mL
M. catarrhalis
  MIC90: 0.06 µg/mL (≈ 0.0801 µM)
